Measurements from article PMC12618397 (Clinical Pharmacokinetics, 2025).
Like-named read-outs stand apart in the source and are kept apart here.

Experiments:
[1] = tested on: plasma protein; conditions: cited from earlier work
[2] = assay type: in vivo, humans; conditions: final model
[3] = tested on: OATP1B; conditions: oral glyburide 1.25 mg, i.v. infusion of 600 mg rifampicin, over 24 h; cited from earlier work
[4] = cited from earlier work

| Compound | binding to plasma protein [1] [%] | clearance CL=VB×ke [2] [L/h] | kBP (transfer blood to pancreas) [2] [h⁻¹] | kBS (transfer blood to spleen) [2] [h⁻¹] | kPB (transfer pancreas to blood) [2] [h⁻¹] | kSB (transfer spleen to blood) [2] [h⁻¹] | kL1B (exchange rate liver to blood) ([2]; without rifampicin) [h⁻^1] | increase of plasma AUC vs baseline [3] [%] | volume of distribution outside central compartment (previous estimates) ([4]; 95% CI 1.3–3.2 L derived from reported estimates) [L] | central volume of distribution ([4]; Rydberg et al.) [L] | elimination rate ([4]; Rydberg et al.) [h⁻^1] | central volume of distribution ([4]; traditional PK modeling, blood samples) [L] |
| --- | --- | --- | --- | --- | --- | --- | --- | --- | --- | --- | --- | --- |
| COc1ccc(Cl)cc1C(=O)NCCc1ccc(S(=O)(=O)NC(=O)NC2CCCCC2)cc1 [[^11C]glyburide] | > 99 | 2.84 | 5.9 | 5.9 | 138 | 131 | 20 |  |  |  |  |  |
| COc1ccc(Cl)cc1C(=O)NCCc1ccc(S(=O)(=O)NC(=O)NC2CCCCC2)cc1 [glyburide] |  |  |  |  |  |  |  | 125 ± 51.5 | 2 | 3.63 | 1.59 | 3.8 |
